From PMC6235670, “An mTOR Signaling Modulator Suppressed Heterotopic Ossification of Fibrodysplasia Ossificans Progressiva” (Stem Cell Reports, 2018) come the findings set out here.

In series [1] the test system is ATDC5/FOP-ACVR1 cells. Kind of series: ALP assay (HTS and dose-response) in ATDC5/FOP-ACVR1. The following applies: same protocol as HTS (72 h). The series is classed as cell-based, mouse.
Series [2] deals with TGF-β signaling (CAGA-Luc). The series is described as follows: CAGA-Luc reporter assay in FOP-iMSCs. The following applies: activin A and compounds for 3 hr. The series is classed as cell-based, human. On the procedure: (§1) FOP-iMSCs transiently transfected with BRE-Luc (A) or CAGA-Luc (B) with CMV-Renilla were stimulated with activin A and compounds for 16 hr (A) or 3 hr (B). […] One day after siRNA transfection, chondrogenic induction with activin A was initiated, and after 7 days the cells were harvested. […] FOP-iMSCs cultured with 10% FBS were treated with 100 nM rapamycin (Rapa) or TAK 165 (TAK) for 2 hr, and the cells were harvested. […] 1 μM TAK, 1 μM CP (CP-724714, another selective ERBB2 inhibitor), or 10 nM Rapa were applied in the experiments.
(In general: In a reporter assay the amount or activity of a reporter protein is the signal.)

The subject of series [3] is mTOR signaling (p-S6). The series is described as follows: p-S6 western blotting during chondrogenic induction of FOP-iMSCs with activin A. The series is classed as cell-based, human. Particulars: 1 µM. On the procedure:
Western blotting. SDS- PAGE and blotting with whole-cell lysates were performed by standard procedures.
Protein bands were detected with ECL Prime Western Blotting Detection Reagent (GE Healthcare) and visualized using BIO-RAD Molecular Imager® Chemi-DocTM XRS+ with Image LabTM software (Bio-Rad).
All data (relative intensity) were corrected by β-actin.
Antibodies for western blotting and immunostaining.
N ame Company Cat. No Concentration
Human Activin RIA/ALK-2 Antibody R&D Systems) AF637 1:100
Anti-human Vimentin antibody Abcam ab16700 1:40
Collagen I Antibody Novus NB600- 1:100
Anti-rabbit IgG, HRP-linked Antibody Cell Signaling #7074 1:10000 […]
2nd Goat anti-Rabbit IgG (H+L) Secondary Antibody, Invitrogen A-11008 1:100 antibody Alexa Fluor® 488 conjugate
Goat anti-Rabbit IgG (H+L) Secondary Antibody, Invitrogen A-21428 1:500

In the next series the test system is BMP signaling (BRE-Luc). The series is described as follows: BRE-Luc reporter assay in FOP-iMSCs. The class given is cell-based, human. Particulars: activin A and compounds for 16 hr. On the procedure: as §1
Series [4] has as its system ATDC5/FOP-ACVR1 cells. Kind of series: AlamarBlue viability assay in ATDC5/FOP-ACVR1. The following applies: AlamarBlue, ATDC5/FOP-ACVR1, 10 μM. On the procedure: Generation of ATDC5 stably expressing ACVR1. WT - or FOP-ACVR1 was inserted into doxycycline (Dox)- […]
(KW111/WT-ACVR1 or KW111/FOP-ACVR1). KW111/WT-ACVR1 or KW111/FOP-ACVR1 and PBaseII […]
FuGeneHD® (Promega) according to the manufacturer’s protocol, and the neomycin- resistant population (500 µg/mL) was selected. Further selection was performed by selecting a mCherry high positive population (< 5%) after six hours of Dox treatment, sorting it with fluorescent-activated cell sorting (FACS) using AriaII (BD) according to the manufacturer’s protocol, and designating it as ATDC5/WT-ACVR1 or ATDC5/FOP-ACVR1.
KW111 included PB, active transposable PB elements; TRE-mCMVP, Tetracycline Response Element and a minimal CMV promoter; rtTA, reverse tetracycline-controlled transactivator. PBaseII was an expression plasmid vector containing the PB transposase cDNA with optimized codon usage to human under the control […]
HTS campaign and follow-up screens. ATDC5/FOP-ACVR1 cells were plated in 96-well white plates (2,000 cells/well/40 µ L, Corning) in DMEM/F-12 supplemented with 5% (v/v) FBS. […]
37 °C under 5% CO2. After 3 days incubation, Alkaline Phosphatase activity (ALP) or AlamarBlue activity was measured using Amplite™ Colorimetric Alkaline Phosphatase Assay Kit (AAT Bioquest) or alamarBlue® Cell Viability Reagent (Thermo Fisher Scientific) according to the manufacturer’s protocol, respectively. T h e […]
was measured on POWERSCAN4 (DS Pharma Biomedical) or EnVision® Multilabel Reader (PerkinElmer).
Inhibitory effects of the screened compounds are given as percent inhibition, which was calculated using the following equation: (1-([Abs of compound] - [Abs of Min])/([Abs of Max] - [Abs of Min]))× 100, where [Abs of Max] and [Abs of Min] are the mean Abs of DMSO control and 1 µM DMH-1, respectively. The Z’ factor, which is widely used as a measure of the assay quality of each plate, was calculated using the following equation: Z’ factor = 1 - 3 × ([SD of Max] + [SD of Min])/([Abs of Max] - [Abs of Min]) (SI Appendix, Fig.
The S/B (signal-to-background) ratio was calculated using the following equation: ([Abs of Max]/[Abs of Min]) (SI Appendix, Fig. S3B).
Using ATDC5/FOP-ACVR1 cells, we performed a first screening (n=2; test compounds = 1 µM, Fig. […]

A further series relates to FOP-iMSCs. The series is described as follows: 2D chondrogenic induction of FOP-iMSCs with activin A (GAG, Alcian blue). The class given is cell-based, human. The following applies: activin A, 7 days.
The subject of a further series is C57BL/6 mice. The series is described as follows: Growth plate histology and normal bone µCT in compound-administered BMP-7-injected mice. The following applies: 5 mg/kg i.p., 2 weeks. Here is the method: MTOR s604 […]tt […]at […]
System Engineering) according to the manufacturer's instructions. […]
BMP-7-induced HO model mice. BMP -7 (2 µ g/mouse) was injected into the right gastrocnemius muscle of C57BL/6NJcl mice (6-8 weeks, male, CLEA Japan), and compounds were administered once a day, five times a week (intraperitoneal administration). Mice were analyzed 2 weeks after injection. […]
Histological analysis of growth plates chondrocytes. Knee joints were obtained from BMP-7-injected and test compounds-administrated C57BL/6NJcl mice after 2 weeks treatment and fixed, paraffin-embedded, and sectioned and stained with Safranin O. The thickness of the proliferative and hypertrophic zones of the growth plate were measured using ImageJ software on images obtained using a Keyence microscope (Keyence A merica). The proliferative zone was defined as the region with flat chondrocytes stacked in longitudinal columns, and the hypertrophic zone as the region where chondrocytes are enlarged in size and form clusters.
Normal bone µCT. The left legs of mice were obtained from BMP -7-injected and test -compounds administrated C57BL/6NJcl mice after 2 weeks treatment. The region of interest (ROI) included the femur- tibia (entire femur in addition to the part of tibia above tibia/fibular junction). […]
Tests of side effects of direct and indirect mTOR inhibitors. Related

In series [5] the test system is mTOR signaling (p-S6). The series is described as follows: p-S6 western blotting in FOP-iMSCs cultured with 10% FBS. The class given is cell-based, human. The following applies: 100 nM, 2 hr. Here is the method:
time point t = 24 h from t = 0 h, and relative cell migration was expressed as the ratio of the absolute cell migrations between the experimental and control groups by using CL-Quant software (Nikon Corp.).
Quantitative PCR analysis. Total RNA was purified with RNeasy Kit (Qiagen) and treated with DNase -one Kit (Qiagen) to remove genomic DNA. Total RNA (0.3 µg) was reverse transcribed for single-stranded cDNA using random primers and Superscript III reverse transcriptase (Thermo Fisher Scientific) according to the manufacturer’s instructions. Quantitative PCR was performed with Thunderbird SYBR qPCR Mix (TOYOBO) and analyzed with the StepOne real-time PCR system (Applied Biosystems). […]
Microarray experiments. 2D chondrogenic induction was performed in FOP-iMSCs stimulated with or without 100 ng/mL Activin-A, TAK 165, CP-724714 and Lapatinib. […] Raw CEL files were imported into GeneSpring GX 12.6.1 software (Agilent Technologies), and expression values were calculated with the RMA16 algorithm. […]
Protein bands were detected with ECL Prime Western Blotting Detection Reagent (GE Healthcare) and visualized using BIO-RAD Molecular Imager® Chemi-DocTM XRS+ with Image LabTM software (Bio-Rad). […]
GAG value. The GAG content was quantified in pellets with the Blyscan Glycosaminoglycan Assay Kit (Biocolor). The DNA content was quantified using PicoGreen dsDNA Quantitation Kit (Thermo Fisher […]
Background: Immunoblotting shows a protein as a band on a membrane.

The test system of series [6] is healthy control iPSC (414C2)-derived iMSCs. Kind of series: Wound healing assay. Particulars: 10 nM rapamycin or 1 µM TAK165, 24 h.

Structures are written as SMILES.

By IC50 is commonly meant the concentration that inhibits the measured activity by half. A higher IC50 goes with weaker potency.

`CCN(CC)CCCCNc1ncc2cc(-c3c(Cl)cccc3Cl)c(NC(=O)NC(C)(C)C)nc2n1` [PD 161570] displayed an IC50 in the series with ATDC5/FOP-ACVR1 cells [1] of 317 nM. In addition, the “CAGA-Luc (TGF-β-responsive luciferase reporter)” value in [2] is on record as “inhibited”. For the same compound, the “p-S6 levels from 2 hr after treatment” value with mTOR signaling (p-S6) [3] is on record as “significantly inhibited”. The “BRE-Luc (BMP-specific luciferase reporter)” value in the series on BMP signaling (BRE-Luc) is “inhibited”. The “Viability (%) @10 μM” value in the series on ATDC5/FOP-ACVR1 cells [4] turned out to be 63%. The “inhibition of glycosaminoglycan (GAG) production” value with FOP-iMSCs (1 μM) is reported as “potent inhibition”. For the same compound, the “suppression of chondrogenic induction (GAG), dose dependence” value in the series on FOP-iMSCs is recorded as “dose-dependent”.
As to `CO[C@H]1C[C@@H]2CC[C@@H](C)[C@@](O)(O2)C(=O)C(=O)N2CCCC[C@H]2C(=O)O[C@H]([C@H](C)C[C@@H]2CC[C@@H](O)[C@H](OC)C2)CC(=O)[C@H](C)/C=C(\C)[C@@H](O)[C@@H](OC)C(=O)[C@H](C)C[C@H](C)/C=C/C=C/C=C/1C` [rapamycin], in the series with C57BL/6 mice, the “Bone Mineral Density (normal bone µCT) vs vehicle” value is listed as “n.s”; the “Bone volume (normal bone µCT, femur-tibia) vs vehicle” value is recorded as “n.s”; the “Hypertrophic zone thickness of growth plate vs vehicle” value was “n.s”; the “Proliferative zone thickness of growth plate vs vehicle” value is reported as “n.s”. The “p-S6 levels (direct mTOR inhibition)” value in the series on mTOR signaling (p-S6) [5] was “decreased”. The “Relative cell migration (wound healing assay) vs DMSO” value in series [6] is listed as “n.s”.
